# Source: ChEMBL document CHEMBL1141622, “Carbonic anhydrase inhibitors: interactions of phenols with the 12 catalytically active mammalian isoforms (CA I-XIV)” (Bioorg Med Chem Lett, 2008)
# What was measured:
# [1] = molecular target: Carbonic anhydrase 13 (Mus musculus) (UniProt Q9D6N1); experiment: Inhibition of mouse recombinant full length carbonic hydrase 13 by stopped-flow assay
# [2] = molecular target: Carbonic anhydrase 1 (Homo sapiens) (UniProt P00915)
# Description: Inhibition of human recombinant full length carbonic hydrase 1 by stopped-flow assay
# [3] = molecular target: Carbonic anhydrase 2 (Homo sapiens) (UniProt P00918)
# Description: Inhibition of human recombinant full length carbonic hydrase 2 by stopped-flow assay
# [4] = molecular target: Carbonic anhydrase 3 (Homo sapiens) (UniProt P07451)
# Chain of Carbonic anhydrase 3 (Homo sapiens) (P07451 whole entry): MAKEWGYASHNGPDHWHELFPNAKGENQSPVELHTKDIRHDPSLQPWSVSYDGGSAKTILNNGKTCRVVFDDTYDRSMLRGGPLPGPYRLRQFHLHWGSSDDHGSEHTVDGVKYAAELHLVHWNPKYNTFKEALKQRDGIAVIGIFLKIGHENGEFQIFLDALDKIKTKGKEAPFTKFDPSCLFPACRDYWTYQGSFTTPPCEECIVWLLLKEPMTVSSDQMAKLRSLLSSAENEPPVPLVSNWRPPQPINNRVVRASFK
# Description: Inhibition of human recombinant full length carbonic hydrase 3 by stopped-flow assay
# [5] = molecular target: Carbonic anhydrase 4 (Homo sapiens) (UniProt P22748)
# Chain of Carbonic anhydrase 4 (Homo sapiens) (P22748 whole entry): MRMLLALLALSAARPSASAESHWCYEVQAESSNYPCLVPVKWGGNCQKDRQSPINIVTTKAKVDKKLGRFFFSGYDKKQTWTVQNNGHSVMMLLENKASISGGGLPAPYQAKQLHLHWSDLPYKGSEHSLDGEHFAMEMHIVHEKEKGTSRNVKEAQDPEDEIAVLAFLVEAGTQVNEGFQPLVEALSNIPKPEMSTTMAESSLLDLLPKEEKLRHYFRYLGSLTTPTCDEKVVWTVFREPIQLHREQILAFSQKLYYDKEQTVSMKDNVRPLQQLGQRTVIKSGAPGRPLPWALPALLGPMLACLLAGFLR
# Description: Inhibition of human recombinant full length carbonic hydrase 4 by stopped-flow assay
# [6] = molecular target: Carbonic anhydrase 5A, mitochondrial (Homo sapiens) (UniProt P35218)
# Chain of Carbonic anhydrase 5A, mitochondrial (Homo sapiens) (P35218 whole entry): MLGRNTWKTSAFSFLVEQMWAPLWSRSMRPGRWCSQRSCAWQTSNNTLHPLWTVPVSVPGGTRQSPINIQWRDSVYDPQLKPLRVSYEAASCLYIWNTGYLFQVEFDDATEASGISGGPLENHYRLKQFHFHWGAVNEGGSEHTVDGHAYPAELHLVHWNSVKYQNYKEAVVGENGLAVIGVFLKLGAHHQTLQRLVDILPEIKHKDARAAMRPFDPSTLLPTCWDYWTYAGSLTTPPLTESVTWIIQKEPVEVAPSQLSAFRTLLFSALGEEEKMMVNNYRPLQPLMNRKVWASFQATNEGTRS
# Description: Inhibition of human recombinant full length carbonic hydrase 5A by stopped-flow assay
# [7] = molecular target: Carbonic anhydrase 6 (Homo sapiens) (UniProt P23280)
# Chain of Carbonic anhydrase 6 (Homo sapiens) (P23280 whole entry): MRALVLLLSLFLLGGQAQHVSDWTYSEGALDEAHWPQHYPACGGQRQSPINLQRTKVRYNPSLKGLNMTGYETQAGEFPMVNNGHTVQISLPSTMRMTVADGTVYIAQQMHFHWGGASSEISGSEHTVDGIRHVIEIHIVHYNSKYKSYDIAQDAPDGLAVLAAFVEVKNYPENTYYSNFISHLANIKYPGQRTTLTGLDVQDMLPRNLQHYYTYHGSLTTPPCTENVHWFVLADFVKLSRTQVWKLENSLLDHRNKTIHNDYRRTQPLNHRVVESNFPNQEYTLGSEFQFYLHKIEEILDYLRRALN
# Description: Inhibition of human recombinant full length carbonic hydrase 6 by stopped-flow assay
# [8] = molecular target: Carbonic anhydrase 7 (Homo sapiens) (UniProt P43166)
# Chain of Carbonic anhydrase 7 (Homo sapiens) (P43166 whole entry): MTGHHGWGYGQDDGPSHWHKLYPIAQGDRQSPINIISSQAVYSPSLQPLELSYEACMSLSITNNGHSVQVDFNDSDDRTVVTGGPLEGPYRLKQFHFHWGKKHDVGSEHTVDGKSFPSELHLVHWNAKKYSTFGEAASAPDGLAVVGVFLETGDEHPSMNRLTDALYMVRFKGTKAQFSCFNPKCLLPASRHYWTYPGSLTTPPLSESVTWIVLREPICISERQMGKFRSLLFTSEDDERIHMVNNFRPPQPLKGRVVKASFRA
# Description: Inhibition of human recombinant full length carbonic hydrase 7 by stopped-flow assay
# [9] = molecular target: Carbonic anhydrase 9 (Homo sapiens) (UniProt Q16790)
# Description: Inhibition of human catalytic domain carbonic hydrase 9 by stopped-flow assay
# [10] = molecular target: Carbonic anhydrase 12 (Homo sapiens) (UniProt O43570)
# Chain of Carbonic anhydrase 12 (Homo sapiens) (O43570 whole entry): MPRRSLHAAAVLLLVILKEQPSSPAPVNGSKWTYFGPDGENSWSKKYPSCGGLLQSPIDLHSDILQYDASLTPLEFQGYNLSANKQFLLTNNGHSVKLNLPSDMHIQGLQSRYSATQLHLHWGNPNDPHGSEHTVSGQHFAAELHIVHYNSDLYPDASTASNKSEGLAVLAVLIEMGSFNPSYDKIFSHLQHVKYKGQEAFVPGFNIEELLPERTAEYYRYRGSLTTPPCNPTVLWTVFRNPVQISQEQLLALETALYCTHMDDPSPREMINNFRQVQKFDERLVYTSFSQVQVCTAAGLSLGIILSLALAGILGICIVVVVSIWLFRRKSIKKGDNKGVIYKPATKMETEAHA
# Description: Inhibition of human catalytic domain carbonic hydrase 12 by stopped-flow assay
# [11] = molecular target: Carbonic anhydrase 14 (Homo sapiens) (UniProt Q9ULX7)
# Chain of Carbonic anhydrase 14 (Homo sapiens) (Q9ULX7 whole entry): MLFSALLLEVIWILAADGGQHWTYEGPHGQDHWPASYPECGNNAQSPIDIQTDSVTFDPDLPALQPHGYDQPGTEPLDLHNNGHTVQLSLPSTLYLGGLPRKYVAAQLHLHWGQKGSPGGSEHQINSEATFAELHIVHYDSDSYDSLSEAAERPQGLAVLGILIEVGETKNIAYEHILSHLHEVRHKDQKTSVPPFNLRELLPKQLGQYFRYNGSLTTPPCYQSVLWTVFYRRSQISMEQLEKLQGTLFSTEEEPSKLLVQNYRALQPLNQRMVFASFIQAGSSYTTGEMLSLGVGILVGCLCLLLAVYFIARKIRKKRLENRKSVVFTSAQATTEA
# Description: Inhibition of human recombinant full length carbonic hydrase 14 by stopped-flow assay
# [12] = molecular target: Carbonic anhydrase 5B, mitochondrial (Homo sapiens) (UniProt Q9Y2D0)
# Chain of Carbonic anhydrase 5B, mitochondrial (Homo sapiens) (Q9Y2D0 whole entry): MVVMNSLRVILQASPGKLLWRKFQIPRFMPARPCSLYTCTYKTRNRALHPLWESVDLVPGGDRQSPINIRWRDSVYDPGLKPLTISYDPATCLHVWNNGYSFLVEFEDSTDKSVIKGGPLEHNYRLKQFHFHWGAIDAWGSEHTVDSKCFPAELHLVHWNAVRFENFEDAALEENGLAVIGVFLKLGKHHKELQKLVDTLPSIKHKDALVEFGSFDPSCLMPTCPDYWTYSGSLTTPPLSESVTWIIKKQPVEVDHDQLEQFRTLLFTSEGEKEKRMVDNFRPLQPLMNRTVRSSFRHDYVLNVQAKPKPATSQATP
# Description: Inhibition of human recombinant full length carbonic hydrase 5B by stopped-flow assay
# Chain of Carbonic anhydrase 13 (Mus musculus) (Q9D6N1 whole entry, looked up): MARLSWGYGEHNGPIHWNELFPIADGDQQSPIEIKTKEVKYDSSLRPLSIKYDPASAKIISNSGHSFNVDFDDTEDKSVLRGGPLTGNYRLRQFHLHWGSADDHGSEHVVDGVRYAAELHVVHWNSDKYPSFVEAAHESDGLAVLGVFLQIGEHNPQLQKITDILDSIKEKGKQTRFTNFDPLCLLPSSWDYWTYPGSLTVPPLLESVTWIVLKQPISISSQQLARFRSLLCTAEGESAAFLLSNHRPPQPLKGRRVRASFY
# Chain of Carbonic anhydrase 1 (Homo sapiens) (P00915 2-261 limits assumed): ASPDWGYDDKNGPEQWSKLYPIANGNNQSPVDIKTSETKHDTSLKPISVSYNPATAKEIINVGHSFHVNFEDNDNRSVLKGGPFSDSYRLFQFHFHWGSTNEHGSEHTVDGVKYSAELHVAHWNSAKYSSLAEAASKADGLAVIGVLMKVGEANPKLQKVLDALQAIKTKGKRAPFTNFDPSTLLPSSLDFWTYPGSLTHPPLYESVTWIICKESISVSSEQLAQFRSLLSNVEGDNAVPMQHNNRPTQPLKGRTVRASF
Kinact [1] [µM],Ki [2] [µM],Ki [3] [µM],Ki [4] [µM],Ki [5] [µM],Ki [6] [µM],Ki [7] [µM],Kinact [8] [µM],Kinact [9] [µM],Kinact [10] [µM],Kinact [11] [µM],Ki [12] [µM],SMILES
4.9,6.6,6.5,3.3,5.4,8.3,5.3,16,5.6,8.1,5,,Oc1c(I)cc(Cl)c2cccnc12
0.019,,,710,,0.065,0.01,,,,,,CC(=O)/N=c1/sc(S(N)(=O)=O)nn1C
84.2,38.8,33.9,0.71,10.7,65,82.6,163,9.4,70.2,10.6,98.4,Oc1cc(F)cc(F)c1
